Data: article PMC7077228 (Viruses, 2020)
Where a name gives a salt, the structure may show the parent alone. Read-outs that look alike come from different tables or passages of the source.

Experiments:
[1] = tested on: H5N1 IAV; type: cell-based, influenza A virus
[2] = tested on: H5N1 IAV; type: cell-based, influenza A virus; remark: listed apart in the source
[3] = tested on: H5N1 IAV HA-induced hemolysis; assay: microbe, parasite or virus in culture; type: cell-based; details: Influenza A virus, H5N1, in Gallus gallus, pH 5.2, read-out: IC50 hemolysis inhibition
[4] = tested on: PR8 (H1N1) IAV (A/Puerto Rico/8/34); assay: microbe, parasite or virus in culture; type: cell-based; details: Influenza A virus, A549
[5] = tested on: H5N1 IAV; type: cell-based, influenza A virus; remark: listed apart in the source
[6] = tested on: A/Duck/Guangdong/99(H5N1) HA; type: cell-based, influenza A virus
[7] = tested on: H9N2 IAV (A/Chicken/Guangdong/16/1996); assay: microbe, parasite or virus in culture; type: cell-based; details: Influenza A virus, H9N2, A549, in Gallus gallus
[8] = tested on: H5N1 IAV; type: cell-based, influenza A virus; remark: listed apart in the source
[9] = tested on: H3N2 IAV (A/Guangdong/Dongguan/1100/2006); assay: microbe, parasite or virus in culture; type: cell-based; details: Influenza A virus, H3N2, A549
[10] = tested on: IAV (H1N1, H5N1, H9N2 and H3N2); assay: microbe, parasite or virus in culture; type: cell-based, influenza A virus
[11] = target: FKBP12 (FK506 binding protein 1A, 12 kDa) (Homo sapiens, UniProt P62942)
[12] = tested on: A549 cells; assay: MTT cytotoxicity assay; details: for CC50: MTT, 24 h of compound treatment
[13] = tested on: H5N1 IAV (A/Duck/Guangdong/99); assay: microbe, parasite or virus in culture; type: cell-based, influenza A virus
[14] = target: Recombinant influenza HA protein from A/Vietnam/1203/2004 (H5N1) (Influenza A virus (A/Vietnam/1203/2004(H5N1)), UniProt Q5EP31); assay: biochemical; type: binding

FKBP12 (FK506 binding protein 1A, 12 kDa), sequence (P62942 whole entry): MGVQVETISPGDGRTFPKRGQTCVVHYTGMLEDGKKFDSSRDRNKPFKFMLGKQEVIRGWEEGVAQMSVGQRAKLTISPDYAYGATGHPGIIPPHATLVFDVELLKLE

`NC(=O)c1ncn([C@@H]2O[C@H](CO)[C@@H](O)[C@H]2O)n1` [ribavirin, Ribavirin hydrochloride, reference compound] was tested, and the “inhibition of viral replication, compound added after 4 hpi” value [1] was “no inhibition” and the “progeny virus yield, post-treatment” value [2] was “inhibition only in the post-treatment mode”.
Compound `CCOC(=O)c1c(CSc2ccccc2)n(C)c2cc(Br)c(O)c(CN(C)C)c12` [arbidol, Arbidol hydrochloride, reference compound] has an IC50 [3] of 51 µM.
`CNC(=O)[C@]12CCC(C)(C)C[C@H]1C1=CC[C@@H]3[C@@]4(C)CC[C@H](O[C@@H]5O[C@H](CO)[C@@H](O[C@@H]6O[C@@H](C)[C@H](O)[C@@H](O)[C@H]6O)[C@H](O)[C@H]5O[C@@H]5O[C@@H](C)[C@H](O)[C@@H](O)[C@H]5O)C(C)(C)[C@@H]4CC[C@@]3(C)[C@]1(C)CC2` [OA-10] was tested, and the EC50 [4] was 6.7 ± 1.4 µM, the “H5N1 IAV NP RNA levels” value [5] was “significantly inhibited” and the “reduction in progeny virus production” value [5] was 1.8 log. For the same compound, the “inhibition of HA adsorption to chicken RBCs” value [6] was “did not inhibit HA adsorption to chicken RBCs”, the “inhibition of H5N1 virus adsorption to chicken RBCs” value ([6]; concentrations ≥40 µM) was “partially blocked” and the EC50 [7] was 15.3 ± 2.5 µM. The “effect on IAV infection after co-incubation at 4 °C (virus binding)” value [8] was “did not affect IAV infection”, the IC50 [3] was 26 µM and the “effect of combination on progeny virus titer and NP production” value [2] was “synergistic effect”. For the same compound, the “progeny virus yield and NP protein expression, co-treatment” value [2] was “mild but significant reduction”, the “progeny virus yield and viral NP production, pre-treatment” value [2] was “did not reduce progeny virus yield and viral NP production” and the “progeny virus yield, post-treatment” value [2] was “one log reduction”. The EC50 [9] was 19.6 ± 3.7 µM, the “progeny virus titer on PR8, H9N2 and H3N2 infection” value [10] was “reduced progeny virus titer” and the EC50 ([10]; Influenza A virus, H1N1|H3N2|H5N1|H9N2, A549, read-out: EC50 range across IAV subtypes) was 6.7 to 19.6 µM. The “interaction with negative control protein” value [11] was “did not interact”, the “cytotoxicity at concentrations ≤ 80 µM” value ([12]; after 24, 48 or 72 h of treatment) was “No obvious cytotoxicity” and the “SI (selectivity index), ratio of CC50 to EC50” value [13] was greater than 45. The EC50 ([13]; Influenza A virus, H5N1, A549) was 14 ± 2.3 µM and the Kd [14] was 2.98 pM.
With `CC1(C)CC[C@]2(C(=O)O)CC[C@]3(C)C(=CC[C@@H]4[C@@]5(C)CC[C@H](O)C(C)(C)[C@@H]5CC[C@]43C)[C@@H]2C1` [OA-0, oleanolic acid] the CC50 [12] was 67.4 ± 4.8 µM, the CC50 ([12]; listed as oleanolic acid) was no less than 31.1 µM and the EC50 [13] was 14.2 ± 1.9 µM. The “SI (selectivity index), ratio of CC50 to EC50” value [13] was 4.7 and the EC50 ([13]; Influenza A virus, H5N1, A549) was no more than 14.2 µM.
With `CCC(CC)[C@H](NC(C)=O)[C@@H]1[C@H](O)[C@@H](C(=O)O)C[C@H]1N=C(N)N` [peramivir, Peramivir, reference compound] the “inhibition on IAV infections (positive control)” value [5] was “significant inhibition”, the “progeny virus yield and NP protein expression, co-treatment” value [2] was “more significant inhibition” and the “progeny virus yield, post-treatment” value [2] was “more significant inhibition”.
